± gives the uncertainty stated by the source.
Test: xn = mol fraction of the nth substance listed

C[C@@H](O)[C@H](N)C(=O)[O-].[Na+] + O
viscosity [mPa·s], 101 kPa
Details	x1 = 0.004484	x1 = 0.008927	x1 = 0.01333	x1 = 0.0177	x1 = 0.02202	x1 = 0.02631	x1 = 0.03478	x1 = 0.0431	x1 = 0.05127
293.15 K	1.122 ± 0.011	1.27 ± 0.012	1.439 ± 0.013	1.636 ± 0.013	1.856 ± 0.015	2.096 ± 0.016	2.659 ± 0.019	3.317 ± 0.024	4.073 ± 0.029
303.15 K	0.9 ± 0.011	1.012 ± 0.011	1.138 ± 0.011	1.279 ± 0.012	1.425 ± 0.013	1.594 ± 0.014	1.993 ± 0.016	2.414 ± 0.019	2.986 ± 0.022
313.15 K	0.734 ± 0.01	0.821 ± 0.01	0.914 ± 0.011	1.024 ± 0.011	1.132 ± 0.012	1.258 ± 0.012	1.55 ± 0.014	1.858 ± 0.015	2.25 ± 0.018
323.15 K	0.612 ± 0.01	0.681 ± 0.01	0.755 ± 0.01	0.84 ± 0.01	0.925 ± 0.011	1.021 ± 0.011	1.242 ± 0.012	1.482 ± 0.013	1.767 ± 0.015

[Ba+2].[Cl-].[Cl-] + O
viscosity [mPa·s], 101.3 kPa
Details	x1 = 0.0009	x1 = 0.0018	x1 = 0.00893	x1 = 0.0125	x1 = 0.0177	x1 = 0.02116	x1 = 0.02631
293.15 K	1.016 ± 0.022	1.027 ± 0.022	1.123 ± 0.024	1.174 ± 0.025	1.261 ± 0.027	1.325 ± 0.028	1.43 ± 0.03
298.15 K	0.9041 ± 0.019	0.9144 ± 0.019	1.005 ± 0.021	1.053 ± 0.022	1.134 ± 0.024	1.194 ± 0.025	1.29 ± 0.027
303.15 K	0.8105 ± 0.017	0.8204 ± 0.017	0.9062 ± 0.019	0.9513 ± 0.02	1.027 ± 0.022	1.082 ± 0.023	1.171 ± 0.025
308.15 K	0.7315 ± 0.015	0.7405 ± 0.016	0.8219 ± 0.017	0.8637 ± 0.018	0.9352 ± 0.02	0.9867 ± 0.021	1.069 ± 0.023
318.15 K	0.6068 ± 0.013	0.6141 ± 0.013	0.688 ± 0.015	0.725 ± 0.015	0.788 ± 0.017	0.8328 ± 0.018	0.9047 ± 0.019

c1ncncn1 + O
viscosity [mPa·s], 101 kPa
Details	x1 = 9.04e-05	x1 = 0.0001902	x1 = 0.0002698	x1 = 0.0003238	x1 = 0.0005432	x1 = 0.0005796	x1 = 0.0006388
293.15 K	0.9241 ± 0.0097	0.9097 ± 0.0096	0.8902 ± 0.0095	0.8869 ± 0.0096	0.8968 ± 0.0092	0.8957 ± 0.0093	0.8944 ± 0.0095
298.15 K	0.8187 ± 0.0087	0.8008 ± 0.0086	0.7878 ± 0.0083	0.7742 ± 0.0083	0.8122 ± 0.0085	0.8002 ± 0.0085	0.7864 ± 0.0085
303.15 K	0.7307 ± 0.0079	0.7212 ± 0.0077	0.7162 ± 0.0076	0.71 ± 0.0074	0.7263 ± 0.0079	0.7135 ± 0.0077	0.6979 ± 0.0077
